Test results as given in patent US6737383B1, “Herbicidal oxadiazolidines” (priority 1999, dated 2004).

What was measured:
bedstraw = experiment: Test B pre/postemergence bedstraw; format: in vivo, Galium aparine
Outline: (§1)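 Response is a visual 0-to-10 score relative to untreated plants, where 0 means no effect and 10 means complete control, taken twelve to sixteen days after application. Treatments went onto soil at planting and onto foliage of 1- to 4-leaf plants, using a surfactant-containing non-phytotoxic solvent.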

blackgrass = experiment: Test B pre/postemergence blackgrass; format: in vivo, Alopecurus myosuroides
Outline: as §1

surinam grass = experiment: Test B pre/postemergence surinam grass; format: in vivo, Brachiaria decumbens
Outline: as §1

cocklebur = experiment: Test B pre/postemergence cocklebur; format: in vivo, Xanthium strumarium
Outline: as §1

corn = experiment: Test B pre/postemergence corn; format: in vivo, Zea mays
Outline: as §1

crabgrass = experiment: Test B pre/postemergence crabgrass; format: in vivo, Digitaria sanguinalis
Outline: as §1

giant foxtail = experiment: Test B pre/postemergence giant foxtail; format: in vivo, Setaria faberii
Outline: as §1

morningglory = experiment: Test B pre/postemergence morningglory; format: in vivo, Ipomoea hederacea
Outline: as §1

pigweed = experiment: Test B pre/postemergence pigweed; format: in vivo, Amaranthus retroflexus
Outline: as §1

rape = experiment: Test B pre/postemergence rape; format: in vivo, Brassica napus
Outline: as §1

soybean = experiment: Test B pre/postemergence soybean; format: in vivo, Glycine max
Outline: as §1

sugar beet = experiment: Test B pre/postemergence sugar beet; format: in vivo, Beta vulgaris
Outline: as §1

velvetleaf = experiment: Test B pre/postemergence velvetleaf; format: in vivo, Abutilon theophrasti
Outline: as §1

wheat = experiment: Test B pre/postemergence wheat; format: in vivo, Triticum aestivum
Outline: as §1

wild oat = experiment: Test B pre/postemergence wild oat; format: in vivo, Avena fatua
Outline: as §1

purple nutsedge = experiment: Test B pre/postemergence purple nutsedge; format: in vivo, Cyperus rotundus
Outline: as §1

[1] = Postemergence, Rate 500 g/ha, scale 0 to 10, 0 is no effect, 10 is complete control
[2] = Preemergence, Rate 62 g/ha, scale of 0 to 10 where 0 is no effect and 10 is complete control
[3] = Preemergence, Rate 125 g/ha, scale 0 to 10, 0 is no effect, 10 is complete control
[4] = Preemergence, Rate 250 g/ha, scale 0 to 10, 0 is no effect, 10 is complete control
[5] = Preemergence, Rate 500 g/ha, scale 0 to 10, 0 is no effect, 10 is complete control
[6] = Postemergence, Rate 62 g/ha, scale of 0 to 10, 0 is no effect, 10 is complete control
[7] = Postemergence, Rate 125 g/ha, scale 0 to 10, 0 is no effect, 10 is complete control
[8] = Postemergence, Rate 250 g/ha, scale 0 to 10
[9] = Preemergence, Rate 500 g/ha, scale of 0 to 10 where 0 is no effect and 10 is complete control

CC(=O)OCCCCn1c(=O)on(C(=O)N(c2ccc(F)cc2F)C(C)C)c1=O [Compound 506]
Plant response rating, Bedstraw (bedstraw; [1]): 9 | Plant response rating, Bedstraw (bedstraw; [2]): 0 | Bedstraw plant response rating (bedstraw; [3]): 0 | Bedstraw plant response rating (bedstraw; [4]): 0 | Bedstraw plant response rating (bedstraw; [5]): 4 | Blackgrass plant response rating (blackgrass; [6]): 0 | Blackgrass plant response rating (blackgrass; [7]): 0 | Blackgrass plant response rating (blackgrass; [8]): 5 | Plant response rating, Blackgrass (blackgrass; [1]): 6 | Plant response rating, Blackgrass (blackgrass; [2]): 0 | Blackgrass plant response rating (blackgrass; [3]): 0 | Blackgrass plant response rating (blackgrass; [4]): 4 | Blackgrass plant response rating (blackgrass; [9]): 9 | B. signalgrass plant response rating (surinam grass; [6]): 0 | B. signalgrass plant response rating (surinam grass; [7]): 0 | B. signalgrass plant response rating (surinam grass; Postemergence, Rate 250 g/ha, scale 0 to 10, 0 no effect, 10 complete control): 0 | Plant response rating, B. signalgrass (surinam grass; [1]): 0 | Plant response rating, B. signalgrass (surinam grass; [2]): 0 | B. signalgrass plant response rating (surinam grass; [3]): 0 | B. signalgrass plant response rating (surinam grass; [4]): 0 | B. signalgrass plant response rating (surinam grass; [5]): 0 | Cocklebur plant response rating (cocklebur; [6]): 0 | Cocklebur plant response rating (cocklebur; [7]): 0 | Cocklebur plant response rating (cocklebur; [8]): 2 | Plant response rating, Cocklebur (cocklebur; [1]): 6 | Plant response rating, Cocklebur (cocklebur; [2]): 0 | Cocklebur plant response rating (cocklebur; [3]): 0 | Cocklebur plant response rating (cocklebur; [4]): 0 | Cocklebur plant response rating (cocklebur; [9]): 0 | Corn plant response rating (corn; [6]): 0 | Corn plant response rating (corn; [7]): 0 | Corn plant response rating (corn; [8]): 0 | Plant response rating, Corn (corn; [1]): 0 | Plant response rating, Corn (corn; [2]): 0 | Corn plant response rating (corn; [3]): 0 | Corn plant response rating (corn; [9]): 0 | Crabgrass plant response rating (crabgrass; [6]): 0 | Crabgrass plant response rating (crabgrass; [7]): 3 | Crabgrass plant response rating (crabgrass; [8]): 7 | Plant response rating, Crabgrass (crabgrass; [1]): 8 | Plant response rating, Crabgrass (crabgrass; [2]): 0 | Crabgrass plant response rating (crabgrass; [3]): 0 | Crabgrass plant response rating (crabgrass; [9]): 6 | Giant foxtail plant response rating (giant foxtail; [6]): 2 | Plant response rating, Giant foxtail (giant foxtail; [1]): 8 | Plant response rating, Giant foxtail (giant foxtail; [2]): 0 | Giant foxtail plant response rating (giant foxtail; [3]): 5 | Giant foxtail plant response rating (giant foxtail; [9]): 8 | Morningglory plant response rating (morningglory; [6]): 0 | Morningglory plant response rating (morningglory; [7]): 0 | Plant response rating, Morningglory (morningglory; [1]): 5 | Plant response rating, Morningglory (morningglory; [2]): 0 | Morningglory plant response rating (morningglory; [3]): 0 | Morningglory plant response rating (morningglory; [9]): 0 | Redroot pigweed plant response rating (pigweed; [6]): 0 | Redroot pigweed plant response rating (pigweed; [7]): 0 | Plant response rating, Redroot pigweed (pigweed; [1]): 0 | Plant response rating, Redroot pigweed (pigweed; [2]): 2 | Redroot pigweed plant response rating (pigweed; [3]): 8 | Redroot pigweed plant response rating (pigweed; [9]): 10 | Rape plant response rating (rape; [6]): 0 | Rape plant response rating (rape; [7]): 0 | Plant response rating, Rape (rape; [1]): 7 | Plant response rating, Rape (rape; [2]): 0 | Rape plant response rating (rape; [3]): 0 | Rape plant response rating (rape; [9]): 8 | Soybean plant response rating (soybean; [6]): 2 | Soybean plant response rating (soybean; [7]): 2 | Plant response rating, Soybean (soybean; [1]): 4 | Plant response rating, Soybean (soybean; [2]): 0 | Soybean plant response rating (soybean; [3]): 0 | Soybean plant response rating (soybean; [9]): 0 | Sugarbeets plant response rating (sugar beet; [6]): 2 | Sugarbeets plant response rating (sugar beet; [7]): 6 | Plant response rating, Sugarbeets (sugar beet; [1]): 7 | Plant response rating, Sugarbeets (sugar beet; [2]): 0 | Sugarbeets plant response rating (sugar beet; [3]): 0 | Sugarbeets plant response rating (sugar beet; [9]): 0 | Velvetleaf plant response rating (velvetleaf; [6]): 0 | Velvetleaf plant response rating (velvetleaf; [7]): 0 | Plant response rating, Velvetleaf (velvetleaf; [1]): 4 | Plant response rating, Velvetleaf (velvetleaf; [2]): 0 | Velvetleaf plant response rating (velvetleaf; [3]): 0 | Velvetleaf plant response rating (velvetleaf; [9]): 0 | Wheat plant response rating (wheat; [6]): 0 | Wheat plant response rating (wheat; [7]): 0 | Plant response rating, Wheat (wheat; [1]): 4 | Plant response rating, Wheat (wheat; [2]): 0 | Wheat plant response rating (wheat; [3]): 0 | Wheat plant response rating (wheat; [9]): 2 | Wild oats plant response rating (wild oat; [6]): 0 | Wild oats plant response rating (wild oat; [7]): 0 | Plant response rating, Wild oats (wild oat; [1]): 2 | Plant response rating, Wild oats (wild oat; [2]): 0 | Wild oats plant response rating (wild oat; [3]): 2 | Wild oats plant response rating (wild oat; [9]): 7 | Nutsedge plant response rating (purple nutsedge; [6]): 0 | Nutsedge plant response rating (purple nutsedge; [7]): 0 | Plant response rating, Nutsedge (purple nutsedge; [1]): 0 | Plant response rating, Nutsedge (purple nutsedge; [2]): 0 | Nutsedge plant response rating (purple nutsedge; [3]): 0 | Nutsedge plant response rating (purple nutsedge; [9]): 10
